In patent US8637252B2, “Methods and compositions for determining altered susceptibility of HIV-1 to anti-HIV drugs” (Monogram Biosciences, Inc., priority 2011, dated 2014):
Values joined by “and” are separate entries in the source; they are usually repeats but may differ in a detail not shown here. Equal values may be shown once.

Test system: HIV-1 (patient-derived PR-RT segment)
Test: phenotypic drug resistance test, resistance test vectors with patient-derived PR-RT segment, luciferase, 293 cells
Type: cell-based
Source text: Patient-derived segments corresponding to the HIV protease and reverse transcriptase coding regions (hereinafter “PR-RT) were amplified by the reverse transcription-polymerase chain reaction method (RT-PCR) using viral RNA isolated from viral particles present in the plasma or serum of HIV-infected individuals as follows. Viral RNA was isolated from the plasma or serum using oligo-dT magnetic beads (Dynal Biotech, Oslo, Norway), followed by washing and elution of viral RNA. The RT-PCR protocol was divided into two steps. A retroviral reverse transcriptase (e.g. Moloney MuLV reverse transcriptase (Roche Molecular Systems, Inc., Branchburg, N.J.; Invitrogen, Carlsbad, Calif.), or avian myeloblastosis virus (AMV) reverse transcriptase, (Boehringer Mannheim, Indianapolis, Ind.)) was used to copy viral RNA into cDNA. The cDNA was then amplified using a thermostable DNA polymerase (e.g. Taq (Roche Molecular Systems, Inc., Branchburg, N.J.), Tth (Roche Molecular Systems, Inc., Branchburg, N.J.), PRIMEZYME. (enzyme_isolated from Thermus brockianus, Biometra, Gottingen, Germany)) or a combination of thermostable polymerases as described for the performance of “long PCR” (Barnes, W. M., 1994, Proc. Natl. Acad. Sci, USA 91, 2216-20) (e.g. Expand High Fidelity PCR System (Taq+Pwo), (Boehringer Mannheim. Indianapolis, Ind.); GENEAMP® XL PCR kit (PCR kit using_Tth+Vent), (Roche Molecular Systems, Inc., Branchburg, N.J.); or ADVANTAGE II®, Clontech, Palo Alto, Calif.)
PCR primers were designed to introduce ApaI and PinAl recognition sites into the 5′ or 3′ end of the PCR product, respectively.
Resistance test vectors incorporating the “test” patient-derived segments were constructed as described in U.S. Pat. No. 5,837,464 using an amplified DNA product of 1.5 kB prepared by RT-PCR using viral RNA as a template and oligonucleotides PDS Apa, PDS Age, PDS PCR6, Apa-gen, Apa-c, Apa-f, Age-gen, Age-a, RT-ad, RT-b, RT-c, RT-f, and/or RT-g as primers, followed by digestion with ApaI and Agel or the isoschizomer PinAl. To ensure that the plasmid DNA corresponding to the resultant fitness test vector comprises a representative sample of the HIV viral quasi-species present in the serum of a given patient, many (>250) independent E. coli transformants obtained in the construction of a given fitness test vector were pooled and used for the preparation of plasmid DNA.
A packaging expression vector encoding an amphotrophic MuLV 4070A env gene product enables production in a resistance test vector host cell comprising the vector alone viral particles which can efficiently infect human target cells. Vectors encoding all HIV genes with the exception of env were used to transfect a packaging host cell (once transfected the host cell is referred to as a fitness test vector host cell). The packaging expression vector which encodes the amphotrophic MuLV 4070A env gene product is used with the resistance test vector to enable production in the resistance test vector host cell of infectious pseudotyped resistance test vector viral particles.
Drug resistance tests performed with resistance test vectors were carried out using packaging host and target host cells consisting of the human embryonic kidney cell line 293.
Resistance tests were carried out with resistance test vectors using two host cell types. Resistance test vector viral particles were produced by a first host cell (the resistance test vector host cell) that was prepared by transfecting a packaging host cell with the resistance test vector and the packaging expression vector. The resistance test vector viral particles were then used to infect a second host cell (the target host cell) in which the expression of the indicator gene is measured.
The resistance test vectors containing a functional luciferase gene cassette were constructed as described above and host cells were transfected with the resistance test vector DNA. […]

[1] = Sample 47 (K103K/N, V106V/A, Y181Y/C, G190G/A)
[2] = Sample 58 (K103N, Y181Y/C, G190G/A)
[3] = Sample 62 (K103H, P225P/H, T369T/I)
[4] = Sample 90 (K103K/N, Y181C, G190A)

Structure (SMILES)	fold change in IC50, PR-RT (Sample 31 (K103N)) [fold]	fold change in IC50, PR-RT (Sample 33 (K103S)) [fold]	fold change in IC50, PR-RT (Sample 34) [fold]	fold change in IC50, PR-RT (Sample 35 (K103H)) [fold]	fold change in IC50, PR-RT (Sample 36 (K103K/W)) [fold]	fold change in IC50, PR-RT (Sample 38 (K103N)) [fold]	fold change in IC50, PR-RT (Sample 39 (T369A)) [fold]	fold change in IC50, PR-RT (Sample 42 (G190G/A)) [fold]	fold change in IC50, PR-RT (Sample 45) [fold]	fold change in IC50, PR-RT [1] [fold]	fold change in IC50, PR-RT (Sample 50 (K103N)) [fold]	fold change in IC50, PR-RT (Sample 51) [fold]	fold change in IC50, PR-RT (Sample 52) [fold]	fold change in IC50, PR-RT [2] [fold]	fold change in IC50, PR-RT [3]	fold change in IC50, PR-RT (Sample 64 (T369T/A)) [fold]	fold change in IC50, PR-RT (Sample 69) [fold]	fold change in IC50, PR-RT (Sample 72) [fold]	fold change in IC50, PR-RT (Sample 80 (K103K/N, Y181Y/C)) [fold]	fold change in IC50, PR-RT (Sample 81 (K103N, P225H)) [fold]	further results
CC(C)Nc1cccnc1N1CCN(C(=O)c2cc3cc(NS(C)(=O)=O)ccc3[nH]2)CC1 [DLV, delavirdine]	16.4	8.7	0.5	6.5	6.7	128.0	0.2	0.4	0.1	6.2	250.0	0.3	3.1	149.6	16.0 fold and 16.00 fold	1.6	1.4	0.9	65.0	12.0	fold change in IC50, PR-RT (Sample 84): 0.9 fold; fold change in IC50, PR-RT (Sample 85): 25.2 fold; fold change in IC50, PR-RT (Sample 87): 0.7 fold; fold change in IC50, PR-RT (Sample 89 (L1001, K103N)): 250.0 fold; fold change in IC50, PR-RT [4]: 4.1 fold; fold change in IC50, PR-RT (Sample 92): 1.1 fold; fold change in IC50, PR-RT (Sample 93): 0.3 fold
O=C1Nc2ccc(Cl)cc2[C@@](C#CC2CC2)(C(F)(F)F)O1 [EFV, efavirenz]	22.8	7.1	0.4	9.3	6.7	42.0	0.3	3.1	0.2	123.9	63.2	0.5	1.3	26.4	20 fold and 20.0 fold and 20.00 fold	1.1	0.8	0.5	11.0	98.0	fold change in IC50, PR-RT (Sample 84): 0.7 fold; fold change in IC50, PR-RT (Sample 85): 22.0 fold; fold change in IC50, PR-RT (Sample 87): 0.9 fold; fold change in IC50, PR-RT (Sample 89 (L1001, K103N)): 700.0 fold; fold change in IC50, PR-RT [4]: 50.5 fold; fold change in IC50, PR-RT (Sample 92): 1.0 fold; fold change in IC50, PR-RT (Sample 93): 0.8 fold
Cc1ccnc2c1NC(=O)c1cccnc1N2C1CC1 [NVP, nevirapine]	88.4	23.3	0.3	25.2	13.0	114.0	0.3	34.0	0.3	400.0	153.9	0.4	2.0	400.0	64 fold and 64.0 fold and 64.00 fold	1.0	1.0	0.7	46.0	92.0	fold change in IC50, PR-RT (Sample 84): 0.8 fold; fold change in IC50, PR-RT (Sample 85): 131.7 fold; fold change in IC50, PR-RT (Sample 87): 0.8 fold; fold change in IC50, PR-RT (Sample 89 (L1001, K103N)): 37.0 fold; fold change in IC50, PR-RT [4]: 400.0 fold; fold change in IC50, PR-RT (Sample 92): 1.1 fold; fold change in IC50, PR-RT (Sample 93): 1.6 fold
